Test results as given in patent publication US6054435A, “6-O-substituted macrolides having antibacterial activity” (priority 1999, dated 2000).
Converted amounts (≈) assume the structure as drawn.

Experiments:
Assay in all cases: in vitro antibacterial activity (MIC), agar dilution
Assay type in all cases: cell-based
Escherichia coli DC-2 = conditions: organism code SS; BHI agar, 35-37° C., 20 to 24 hours; unit assumed
Method in brief: (§1)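 Steps: dilute compound serially into BHI agar (twelve plates); spot inocula diluted 1:100, or 1:10 for slow-growing Streptococcus; incubate; inspect visually. MIC recorded as lowest level with no growth, slight haze or sparse isolated colonies.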

Candida albicans CCH 442 = conditions: organism code TT; BHI agar, 35-37° C., 20 to 24 hours; unit assumed
Method in brief: as §1

[1] = system: Enterococcus faecium ATCC 8043; conditions: organism code II; BHI agar, 35-37° C., 20 to 24 hours; unit assumed
Method in brief: as §1

[2] = system: Micrococcus luteus ATCC 4698; conditions: organism code PP; BHI agar, 35-37° C., 20 to 24 hours; unit assumed
Method in brief: (§2)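 Endpoint: lowest concentration with no growth, slight haze or sparsely isolated colonies at the inoculum spot, judged against a compound-free BHI control. Strains were replicator-inoculated at 1:100 (1:10 for Streptococcus and other slow growers).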

[3] = system: Staphylococcus aureus CMX 553; conditions: organism code FF; BHI agar, 35-37° C., 20 to 24 hours; unit assumed
Method in brief: as §1

[4] = system: Streptococcus Pneumonia GYR 1171; conditions: organism code YY; BHI agar, 35-37° C., 20 to 24 hours; unit assumed
Method in brief: as §1

[5] = system: Streptococcus pyogenes PIU 2548; conditions: organism code NN; BHI agar, 35-37° C., 20 to 24 hours; unit assumed
Method in brief: as §1

Escherichia coli JUHL = conditions: organism code QQ; BHI agar, 35-37° C., 20 to 24 hours; unit assumed
Method in brief: as §1

[6] = system: Streptococcus Pneumonia ATCC6303; conditions: organism code XX; BHI agar, 35-37° C., 20 to 24 hours; unit assumed
Method in brief: as §1

[7] = system: Staphylococcus aureus NCTC10649M; conditions: organism code EE; BHI agar, 35-37° C., 20 to 24 hours; unit assumed
Method in brief: as §1

[8] = system: Haemophilis Influenzae DILL AMP R; conditions: organism code WW; BHI agar, 35-37° C., 20 to 24 hours; unit assumed
Method in brief: as §1

[9] = system: Staphylococcus epidermidis 3519; conditions: organism code HH; BHI agar, 35-37° C., 20 to 24 hours; unit assumed
Method in brief: as §1

[10] = system: Staphylococcus aureus A5177; conditions: organism code BB; BHI agar, 35-37° C., 20 to 24 hours; unit assumed
Method in brief: as §1

[11] = system: Streptococcus Pneumonia 5649; conditions: organism code ZZA; BHI agar, 35-37° C., 20 to 24 hours; unit assumed
Method in brief: as §1

[12] = system: Streptococcus agalactiae CMX 508; conditions: organism code KK; BHI agar, 35-37° C., 20 to 24 hours; unit assumed
Method in brief: as §1

[13] = system: Staphylococcus aureus ATCC 6538P; conditions: organism code AA; BHI agar, 35-37° C., 20 to 24 hours; unit assumed
Method in brief: as §1

[14] = system: Staphylococcus aureus A-5278; conditions: organism code CC; BHI agar, 35-37° C., 20 to 24 hours; unit assumed
Method in brief: as §1

[15] = system: Nocardia Asteroides ATCC9970; conditions: organism code VV; BHI agar, 35-37° C., 20 to 24 hours; unit assumed
Method in brief: as §1

[16] = system: Streptococcus Pneumonia 5979; conditions: organism code ZZ; BHI agar, 35-37° C., 20 to 24 hours; unit assumed
Method in brief: as §1

[17] = system: Staphylococcus aureus CMX 642A; conditions: organism code DD; BHI agar, 35-37° C., 20 to 24 hours; unit assumed
Method in brief: as §1

[18] = system: Micrococcus luteus ATCC 9341; conditions: organism code OO; BHI agar, 35-37° C., 20 to 24 hours; unit assumed
Method in brief: as §2

Escherichia coli SS = conditions: organism code RR; BHI agar, 35-37° C., 20 to 24 hours; unit assumed
Method in brief: as §1

[19] = system: Streptococcus bovis A-5169; conditions: organism code JJ; BHI agar, 35-37° C., 20 to 24 hours; unit assumed
Method in brief: as §1

[20] = system: Staphylococcus aureus 1775; conditions: organism code GG; BHI agar, 35-37° C., 20 to 24 hours; unit assumed
Method in brief: as §1

[21] = system: Streptococcus pyogenes EES61; conditions: organism code LL; BHI agar, 35-37° C., 20 to 24 hours; unit assumed
Method in brief: as §1

[22] = system: Streptococcus pyogenes 930; conditions: organism code MM; BHI agar, 35-37° C., 20 to 24 hours; unit assumed
Method in brief: as §1

[23] = system: Mycobacterium smegmatis ATCC 114; conditions: organism code UU; BHI agar, 35-37° C., 20 to 24 hours; unit assumed
Method in brief: as §1

SMILES | MIC (Escherichia coli DC-2) [µg/mL] | MIC (Candida albicans CCH 442) [µg/mL] | MIC [1] [µg/mL] | MIC [2] [µg/mL] | MIC [3] [µg/mL] | MIC [4] [µg/mL] | MIC [5] [µg/mL] | MIC (Escherichia coli JUHL) [µg/mL] | MIC [6] [µg/mL] | MIC [7] [µg/mL] | MIC [8] [µg/mL] | MIC [9] [µg/mL] | MIC [10] [µg/mL] | MIC [11] [µg/mL] | MIC [12] [µg/mL] | MIC [13] [µg/mL] | MIC [14] [µg/mL] | MIC [15] [µg/mL] | MIC [16] [µg/mL] | MIC [17] [µg/mL] | other results
CC[C@H]1OC(=O)[C@H](C)C(=O)[C@H](C)[C@@H](O[C@@H]2O[C@H](C)C[C@H](N(C)C)[C@H]2O)[C@](C)(OCC#Cc2ccc(-c3ccc(C=O)o3)cc2)C[C@@H](C)C(=O)[C@H](C)[C@H]2NC(=O)O[C@@]21C [Example 24] | > 100 | > 100 | 0.2 (≈ 0.248 µM) | 0.39 (≈ 0.483 µM) | 0.39 (≈ 0.483 µM) | 0.03 (≈ 0.0372 µM) | 0.78 (≈ 0.967 µM) | > 100 | 0.03 (≈ 0.0372 µM) | 0.39 (≈ 0.483 µM) | 8 (≈ 9.91 µM) | 0.39 (≈ 0.483 µM) | 0.39 (≈ 0.483 µM) | 0.25 (≈ 0.31 µM) | 0.1 (≈ 0.124 µM) | 0.39 (≈ 0.483 µM) | > 100 | 0.1 (≈ 0.124 µM) | 2 (≈ 2.48 µM) | 0.39 (≈ 0.483 µM) | MIC [18]: 0.02 µg/mL (≈ 0.0248 µM); MIC (Escherichia coli SS): 1.56 µg/mL (≈ 1.93 µM); MIC [19]: 0.1 µg/mL (≈ 0.124 µM); MIC [20]: > 100 µg/mL; MIC [21]: 0.1 µg/mL (≈ 0.124 µM); MIC [22]: 25 µg/mL (≈ 31 µM); MIC [23]: 3.1 µg/mL (≈ 3.84 µM)
CC[C@H]1OC(=O)[C@H](C)C(=O)[C@H](C)[C@@H](O[C@@H]2O[C@H](C)C[C@H](N(C)C)[C@H]2O)[C@](C)(OC/C=C/c2ccc(-c3cccnc3)s2)C[C@@H](C)C(=O)[C@H](C)[C@H]2NC(=O)O[C@@]21C [Example 68] | > 100 | > 100 | 0.05 (≈ 0.0627 µM) | 0.39 (≈ 0.489 µM) | 0.39 (≈ 0.489 µM) | ≤ 0.004 | 6.2 (≈ 7.77 µM) | 100 (≈ 125 µM) | ≤ 0.004 | 0.39 (≈ 0.489 µM) | 2 (≈ 2.51 µM) | 0.39 (≈ 0.489 µM) | 6.2 (≈ 7.77 µM) | 0.125 (≈ 0.157 µM) | 0.02 (≈ 0.0251 µM) | 0.2 (≈ 0.251 µM) | > 100 | 0.05 (≈ 0.0627 µM) | 0.125 (≈ 0.157 µM) | 0.39 (≈ 0.489 µM) | MIC [18]: 0.02 µg/mL (≈ 0.0251 µM); MIC (Escherichia coli SS): 0.39 µg/mL (≈ 0.489 µM); MIC [19]: 0.02 µg/mL (≈ 0.0251 µM); MIC [20]: > 100 µg/mL; MIC [21]: 0.05 µg/mL (≈ 0.0627 µM); MIC [22]: > 100 µg/mL; MIC [23]: 3.1 µg/mL (≈ 3.88 µM)
